Earlier results on five molecules are cited in patent US20230240962A1, “METHOD FOR DYEING KERATINOUS MATERIAL, COMPRISING THE USE OF AN ORGANOSILICON COMPOUND, AN ALKYL(POLY)GLYCOSIDE, A DYEING COMPOUND AND A POST-TREATMENT AGENT” (Henkel AG & Co. KGaA, priority 2020, published 2023).

The conditions of this series: 25° C.

With `CCN(Cc1cccc(S(=O)(=O)[O-])c1)c1ccc(C(=C2C=CC(=[N+](CC)Cc3cccc(S(=O)(=O)[O-])c3)C=C2)c2ccccc2S(=O)(=O)[O-])cc1.[Na+].[Na+]` [Acid Blue 9], the solubility in water result is on record as “more than 20 wt. %”.

With `O=S(=O)([O-])c1ccc(N=Nc2c(O)ccc3ccccc23)cc1.[Na+]` [Acid Orange 7, sodium salt of 4-[(2-hydroxy-1-naphthyl)azo]benzene sulphonate], the solubility in water entry is on record as “more than 7 g/L”.

With `Nc1cc(S(=O)(=O)[O-])cc2cc(S(=O)(=O)[O-])c(N=Nc3ccccc3)c(O)c12.[Na+].[Na+]` [Acid Red 33, disodium salt of 5-amino-4-hydroxy-3-(phenylazo)-naphthalene-2,7-disulphonate], the solubility in water is 2500 µg/mL.

On to `O=C([O-])c1c(Cl)c(Cl)c(Cl)c(Cl)c1-c1c2c(Br)cc(=O)c(Br)c-2oc2c(Br)c(O)cc(Br)c12.O=C([O-])c1c(Cl)c(Cl)c(Cl)c(Cl)c1-c1c2c(Br)cc(=O)c(Br)c-2oc2c(Br)c(O)cc(Br)c12.[Na+].[Na+]` [Acid Red 92, disodium salt of 3,4,5,6-tetrachloro-2-(1,4,5,8-tetrabromo-6-hydroxy-3-oxoxanthen-9-yl)benzoic acid], for which the solubility in water result is listed as “greater than 10 g/L”.

`O=C([O-])C1=NN(c2ccc(S(=O)(=O)[O-])cc2)C(=O)C1N=Nc1ccc(S(=O)(=O)[O-])cc1.[Na+].[Na+].[Na+]` (centres unmarked) [Acid Yellow 23, trisodium salt of 4,5-dihydro-5-oxo-1-(4-sulfophenyl)-4-((4-sulfophenyl)azo)-1H-pyrazole-3-carboxylic acid]: the “solubility in water (in words)” value is on record as “highly soluble”.
